Measurements from patent publication US20230355605A1, “DRUG FOR ENHANCING FIBRINOLYTIC SYSTEM, AND USE THEREFOR” (priority 2020, published 2023).

Experiments:
[1] = system: immature rat bone marrow erythrocytes; assay: Micronucleus study in rats; conditions: in vivo
Method: The present compound was orally administered to rats to examine its micronucleus-inducing properties and bone marrow cell proliferation suppressive effect on immature bone marrow erythrocytes.
Specifically, the present compound was orally administered to rats twice 24 hours apart, and bone marrow smears were prepared 18 to 24 hours after the last administration. 2000 immature erythrocytes (IEs) were observed per individual, and the percentage of micronucleated immature erythrocytes (micronucleated IEs, MNIEs) contained in the immature erythrocytes [MNIEs (%)] was calculated. In addition, 1000 erythrocytes were observed as the total erythrocyte count per individual, and the percentage of IEs in the total erythrocytes [IEs (%)] was determined.

pregnant rats = assay: Embryo-fetal developmental toxicity study; assay type: in vivo, rat; conditions: oral, days 7 to 17 of gestation
Method: The effect of oral administration of the present compound on embryo-fetal development was examined using rats. Specifically, the present compound was orally administered to pregnant rats from implantation to closure of the hard palate (days 7 to 17 of gestation), and the effect on the mothers, and embryos and fetuses was examined. Furthermore, the plasma concentration of the present compound after administration was measured, and its change was examined. During the study period, the general conditions of all of the animals were observed, and their body weights were measured; in the toxicity group, food consumption was measured; a Cesarean section test was performed on day 20 of gestation. Thereafter, fetal visceral and skeletal specimens were prepared, and a fetal examination was performed.

[2] = system: conscious cynomolgus monkeys; assay: Effect on cardiovascular and respiratory system (telemetry, blood gas); assay type: in vivo, cynomolgus monkey; conditions: single oral dose, up to 300 mg/kg
Method: The effect of the present compound on the cardiovascular system and the respiratory system was examined by a telemetry method and blood gas measurement using conscious cynomolgus monkeys. Systemic exposure of the test substance was also evaluated. Specifically, a control substance (a 0.5 w/v% carmellose sodium aqueous solution) and the present compound were orally administered at single ascending dosages at intervals of 7 days, and the heart rate, blood pressure (systolic blood pressure, diastolic blood pressure, and mean blood pressure), electrocardiogram (PR interval, QRS duration, QT interval, and QTc interval), respiratory rate, and body temperature were measured before administration and 1, 2, 4, 6, and 24 hours after administration on each administration day with the monkeys unanesthetized and unrestrained. Furthermore, before administration and 2, 6, and 24 hours after administration on each administration day, arterial blood was collected, and blood gases (oxygen partial pressure, carbon dioxide partial pressure, pH, and oxygen saturation) were measured. Systemic exposure was also evaluated by measuring the concentration of the test substance in plasma.

CHL/IU cells = assay: Chromosomal abnormality study; assay type: cell-based, Chinese hamster; conditions: with and without S9 mix
Method: A study on the clastogenic property of the present compound was performed in the presence of a drug metabolism-activating enzyme (S9 mix) (hereinafter referred to as a “metabolic activation method”) and in the absence of a drug metabolism-activating enzyme (S9 mix) (hereinafter referred to as a “direct method”) using mammalian cultured cells (Chinese hamster cultured cells (CHL/IU cells)).

rats = assay: 4-week repeated oral dose toxicity study in rats; assay type: in vivo
[3] = 30, 60, 120, 250 mg/kg/day oral, 4 weeks

O=C(Nc1ccc(Cl)cc1C(=O)[O-])c1cccc(-c2cccc3cccnc23)c1.[Na+] [present compound, sodium 5-chloro-2-({ [3-(quinolin-8-yl)phenyl]carbonyl}amino)benzoate]
micronucleus-inducing effect on immature rat bone marrow erythrocytes [1]: no micronucleus-inducing effect | proliferation suppressive effect on bone marrow cells [1]: no proliferation suppressive effect | effect on pregnancy, embryos and fetuses (pregnant rats): no effect on maintenance of pregnancy, no embryolethal effect, no fetal growth suppressive effect, and no teratogenic effect | no-observed-adverse-effect level for embryos and fetuses (pregnant rats): 1000 mg/kg/day | no-observed-adverse-effect level for the mothers (pregnant rats): 1000 mg/kg/day | effect on the cardiovascular system or the respiratory system [2]: no effect | clastogenic effect (CHL/IU cells): no clastogenic effect | deaths during the administration period (rats; [3]): No deaths | effect on general condition, body weight, food consumption, ophthalmology, ECG, hematology, urinalysis, necropsy, organ weights (rats; [3]): No effect | no-observed-adverse-effect level (rats; rats, males and females, 4-week repeated oral dose): 250 mg/kg/day
